Measurements: US8821888B2, “Xylogone ganodermophthora strain with antifungal activity, and composition including same for preventing plant diseases” (The Director of Chungcheongbuk-Do Agricultural Research and …, priority 2013, dated 2014)

System: Sphaerotheca fusca
Assay: Control effect of sprayed extract on leaves of cucurbitaceous crops infected with Sphaerotheca fusca
Format: in vivo
Conditions: 4,000 fold dilution, 7 days after spray
Experimental: The control effects of the extract of the cultured H55 strain prepared in Example 1 were measured. […] The extract was sprayed once at the initial stage of the development of Sphaerotheca fusca, and at 7 days after the spray of the extract, the control effect of the extract for each crop was measured.

CCCOC/C(=N\c1ccc(Cl)cc1C(F)(F)F)n1ccnc1 [Triflumizole]
Control value (Cucumbers): 83.3 | Diseased leaf area (Cucumbers): 10% | Control value (Melons): 42.9 | Diseased leaf area (Melons): 40% | Control value (Oriental melons): 80.0 | Diseased leaf area (Oriental melons): 10% | Control value (Pumpkins): 62.5 | Diseased leaf area (Pumpkins): 30%
